From patent publication US20050107394A1, “Novel use of selective pde5 inhibitors” (priority 2001, published 2005)
Several values for one entry are separate records, joined by “and”; a condition that tells them apart may be missing. Identical values can stand only once.

Legend:
[1] = test system: patients with COPD (chronic obstructive pulmonary disease); assay: 6-minutes walking test in COPD patients; format: in vivo, human; conditions: 6 months
Description: FIG. 7: Result of the 6-minutes walking test measured on 4 patients with COPD (chronic obstructive pulmonary disease). […]

[2] = test system: patients with COPD (chronic obstructive pulmonary disease); assay: Arterial oxygen saturation at rest in COPD patients; format: in vivo, human; set-up: dose or concentration left out as unconfirmed; conditions: 4 COPD patients; sildenafil oral, 6 months
Procedure: FIG. 8: Result of determination of the arterial oxygen saturation on 4 patients with COPD (chronic obstructive pulmonary disease) treated with sildenafil (75 mg/day) (oral) measured at rest over a period of 6 months. The arterial oxygen saturation in the patient improved respectively by 2%, 4%, 5% and 6%, compared with the saturation at the start of the series of measurements (time: 0 months). […]

[3] = test system: bleomycin-induced pulmonary fibrosis in rabbits; assay: Oxygenation index (PaO2/FiO2) in bleomycin-induced pulmonary fibrosis; format: in vivo, rabbit; conditions: for effect on O2 saturation: FIG. 2; for oxygenation index (PaO2/FiO2), raised compared with the control (190): NO 20 ppm inhaled, sildenafil 1 mg/kg oral
Procedure: FIG. 2: Result of determination of the oxygenation index (arterial oxygen partial pressure/fraction of inspired oxygen [PaO2/FiO2]) measured in the model of bleomycin-induced pulmonary fibrosis in rabbits. Whereas systemic PGI (6 ng/kg body weight/min] (PGI, prostacyclin) reduces the oxygenation index by 60% compared with the control (190), the oxygenation index was markedly raised by inhaled NO [20 ppm] by 28% and sildenafil (oral) [1 mg/kg body weight] by 31%.
Healthy rabbits of both sexes were pretreated orally with a gyrase inhibitor (Baytril®) for one week. Ten animals pretreated in this way were not treated with bleomyin and served as control, and, on the day of exposure, the others were anaesthetized with a Ketanest®/Rompun® mixture, intubated intratracheally and ventilated mechanically. An ultrasonic nebulizer (MMAD 2.5 μm) was used to administer by inhalation exactly 1.8 U/kg of bodyweight of bleomycin under volume-controlled ventilation. After 4, 8, 16, 24, 32 and 64 days (in each case n≧5) post exposure, the animals were again anaesthetized, provided with an arterial access (right carotid artery) and underwent bodyweight-adapted ventilation via a tracheostomy in a volume-controlled method. The arterial pO2 and pCO2, and the static compliance of the lung were measured (by recording the intrathoracic pressure and with slow inflation/deflation manoeuvres). Subsequently, the lungs of these animals were dissected and perfused with a Krebs Hensefeit buffer. Under these conditions, the capillary filtraton coefficient (cfc) was then found from the weight gain of the organ after increasing the pulmonary venous pressure by 7.5 mmHg, and the peak ventilation pressure was found. After completion of these measurements, the left main bronchus was ligated in the end-inspiratory position and a bronchoalveolar lavage (BAL) was performed on the right lung. Subsequently, the large vessels and airways of the right lung were dissected off and the organ was homogenized. The left lung was perfusion-fixed with 4% formalin solution while maintaining a pressure gradient of 25 cm H2O and was then stored in 4% formalin until embedded. Firstly, the cells were removed from the BAL, counted and differentiated via a Papenheim stain. The cell-free BAL supernatant was then aliquoted and submitted to further analysis of the surfactant and coagulation properties and a determination of the matrix metallo proteinases (MMPs) and their inhibitors (TIMPs) and of soluble collagen. Bronchoalveolar deposition of 1.8 U/kg of bodyweight of bleomycin led initially to development of an ARDS-like event, with a massive restriction of gas exchange (paO2/FiO2 of >500 mmHg in the controls reduced to ˜110 mmHg on day 4), ground-glass opacities over all sections of the lung in the HRCT and an increase of about 5-fold in the capillary filtration coefficient (cfc). In the later phase of bleomycin-induced lung damage there was then development of pronounced fibrosis which could be confirmed on the basis of the increase in soluble collagen in the BAL and the hydroxyproline in the tissue, on the basis of the histological specimens and of the HRCT findings. […] Consistent with this, a pronounced increase in the extracellular matrix and an alveolar and also interstitial ingress of fibroblasts was observable in the histological sections. Besides the homogeneously distributed zones of fibrosis there were also thin hyperdistended sections of lung with a honeycomb appearance.
Systemically administered PGI (vasodilatator) increased the shunting to about 30%. […] The data for O2 saturation (FIG. 2) correspond directly.

Row | Compound | 6-minutes walking distance, improvement compared with the starting point (0 months), one value per patient ([1]; 4 COPD patients, 75 mg sildenafil oral each day) | functional capacity (6-min walking, arterial O2 saturation), words ([1]; 4 patients, 50 mg/d sildenafil oral) | arterial oxygen saturation at rest, improvement compared with the start (0 months), one value per patient [2] | effect on O2 saturation [3] | oxygenation index (PaO2/FiO2), raised compared with the control (190) [3] | oxygenation index (PaO2/FiO2), reduction compared with the control (190) ([3]; PGI 6 ng/kg/min systemic)
1 | CCCc1nn(C)c2c(=O)[nH]c(-c3cc(S(=O)(=O)N4CCN(C)CC4)ccc3OCC)nc12 [sildenafil, 5-[2-ethoxy-5-(4-methyl-1-piperazinyl-sulphonyl)phenyl]-1-methyl-3-n-propyl-1,6-dihydro-7H-pyrazolo[4,3-d]pyrimidin-7-one] | 41% and 45% and 74% and 150% | marked improvement | 2% and 4% and 5% and 6% | marked increases in O2 saturation | 31% | –
2 | CCCCC[C@H](O)/C=C/[C@@H]1[C@H]2C/C(=C/CCCC(=O)O)O[C@H]2C[C@H]1O [PGI, prostacyclin] | – | – | – | reduced O2 saturation | – | 60%
3 | [N]=O [NO, nitric oxide] | – | – | – | marked increases in O2 saturation | 28% | –
